Experimental data published in patent US20110269226A1, “Microfluidic Continuous Flow Device for Culturing Biological Material” (priority 2008, published 2011).

Key:
zebrafish = settings: cited from earlier work
medeka fish embryo = experiment: Effect of chemical substances on fish embryo development in cultivation chamber of microfluidic continuous flow device; format: in vivo, Medaka (Oryzias latipes); settings: for death of the Medaka embryos: after 25 hours
Description: A medeka fish embryo was introduced into the cultivation chamber using a pipette. The fish embryos maintain the same size until they hatch. Once all the embryos are transferred to the 8 wells of the microfluidic continuous flow device shown in FIG. 1, a coverslip is placed over the wells to seal them off.
In two different experiments EtOH (ethanol, 0-5%) and TAA ([…], 0-3%) were used as chemical substances to test the reaction of the fish embryo retained in the cultivation chamber of the microfluidic continuous flow device shown in FIG. 1. Both substances affect the liver (TAA induces lipid peroxidation which leads to liver damage). An over-dosage of both will lead to death. The flow rate in the microfluidic continuous flow device is about 1 ml/2.5 hours or 400 μl/h.

For `CNC(=O)Oc1cccc2ccccc12` [carbaryl], the “effects observed on early development” value (zebrafish) is listed as “Red blood cell accumulation and delayed hatching”.

In the case of `CC1(C)O[C@@H]2C[C@H]3[C@@H]4CCC5=CC(=O)C=C[C@]5(C)[C@@]4(F)[C@@H](O)C[C@]3(C)[C@]2(C(=O)CO)O1` [TAA, triamcinolone acetonide], the “death of the Medaka embryos” value (medeka fish embryo; TAA 1.5, 2 and 2.5 v/v %) is reported as “died”, the “death of the Medaka embryo” value (medeka fish embryo; TAA 3 v/v % (highest concentration), after 21 hours, stage 38) is reported as “died and caused the death of the Medaka embryo” and the “death of the Medaka embryos” value (medeka fish embryo; TAA, the 4 highest concentrations) is reported as “had died”.

For `CCO` [EtOH, ethanol], the “intoxication of the embryo versus concentration” value (medeka fish embryo; EtOH 0 to 5 v/v %, over 25 hours) was “The higher the concentration of the EtOH, the intoxicated the embryo is”, the effect on organs (medeka fish embryo; EtOH highest concentration (4.27% and 5%), 25 hours) was “the organs seem to be affected” and the organ colour change (medeka fish embryo; ethanol, the higher concentrations) was “the organs turned black”. The “number of twitches (movements) of the embryo in the chamber” value (medeka fish embryo; rising ethanol concentration (0 to 5 v/v %)) was “the number of twitches rose with the ethanol concentration”.
